Here are results for 22 molecules from patent US20230011869A1 (Hoffmann-La Roche Inc., priority 2018, published 2023).

Structures can show the parent of a compound that is named as a salt.

The test system of one assay is Acinetobacter baumannii ATCC17978. In words: Antimicrobial susceptibility testing: 90% growth inhibitory concentration (IC90) determination, Iso-Sensitest broth. The class given is cell-based. To be noted: 90% growth inhibitory concentration, Acinetobacter baumannii ATCC17978, Iso-Sensitest broth, OD 600 nm over 16 h; read-out: ATCC17978 IC90. Summed up:
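A. baumannii ATCC17978 grown in Iso-Sensitest broth across 10 compound concentrations at 35±2 °C.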
`Cc1cc(Nc2nccn3c(-c4ccc(OCC#N)c(F)c4Cl)cnc23)ccc1C(=O)N1CCC(C(=O)N2CCN[C@@H](CO)C2)CC1` [Example 539, 2-[3-chloro-2-fluoro-4-[8-[4-[4-[(3R)-3-(hydroxymethyl)piperazine-1-carbonyl]piperidine-1-carbonyl]-3-methylanilino]imidazo[1,2-a]pyrazin-3-yl]phenoxy]acetonitrile; for-mic acid]: the IC90 came out at 88 nM.
Turning to `Cc1cc(Nc2nccn3c(-c4ccc(OCC#N)c(F)c4F)cnc23)ccc1C(=O)N1CCC(C(=O)N2CCN[C@H](CO)C2)CC1` [Example 542, 2-[2,3-difluoro-4-[8-[4-[4-[(3S)-3-(hydroxymethyl)piperazine-1-carbonyl]piperidine-1-carbonyl]-3-methylanilino]imidazo[1,2-a]pyrazin-3-yl]phenoxy]acetonitrile; for-mic acid], the IC90 was 98 nM.
Consider `Cc1cc(Nc2nccn3c(-c4ccc(OCC#N)c(F)c4F)cnc23)ccc1C(=O)N1CCC(C(=O)N2CCN[C@@H](CO)C2)CC1` [Example 543, 2-[2,3-difluoro-4-[8-[4-[4-[(3R)-3-(hydroxymethyl)piperazine-1-carbonyl]piperidine-1-carbonyl]-3-methylanilino]imidazo[1,2-a]pyrazin-3-yl]phenoxy]acetonitrile; for-mic acid], for which the IC90 came to 99 nM.
`COc1ccc(-c2cnc3c(Nc4ccc(C(=O)N5CCC(C(=O)N6CCN[C@@H](C(=O)O)C6)CC5)c(C)c4)nccn23)cc1F` [Example 558, (R)-4-(1-(4-((3-(3-fluoro-4-methoxyphenyl)imidazo[1,2-a]pyrazin-8-yl)amino)-2-methylbenzoyl)piperidine-4-carbonyl)piperazine-2-carboxylic acid hydrochloride]: the IC90 stood at 922 nM.

The same assay, now with this note: Acinetobacter baumannii, ATCC17978, 16 h, read-out: ATCC17978 IC90, 90% growth inhibitory concentration, Acinetobacter baumannii ATCC17978, Iso-Sensitest broth, OD 600 nm over 16 h.
Regarding `Cc1cc(Nc2nccn3c(-c4ccc(OC(F)F)cc4)cnc23)ccc1C(=O)N1CCN(C(=O)[C@@H](N)[C@@H](C)O)CC1` [Example 527, (2S,3R)-2-amino-1-[4-[4-[[3-[4-(difluoromethoxy)phenyl]imi-dazo[1,2-a]pyrazin-8-yl]amino]-2-methylbenzoyl]piperazin-1-yl]-3-hydroxybutan-1-one; hydrochloride], the IC90 was found to be 600 nM.
Take `Cc1cc(Nc2nccn3c(-c4ccc(OC(F)F)cc4)cnc23)ccc1C(=O)N1CCN(C(=O)[C@@H](N)CC(N)=O)CC1` [Example 528, (3S)-3-amino-4-[4-[4-[[3-[4-(difluoromethoxy)phenyl]imi-dazo[1,2-a]pyrazin-8-yl]amino]-2-methylbenzoyl]piperazin-1-yl]-4-oxobutanamide; hydrochloride]: the IC90 was 610 nM.
`Cc1cc(Nc2nccn3c(-c4ccc(OC(F)F)cc4)cnc23)ccc1C(=O)N1CCN(C(=O)[C@H]2C[C@H](O)CN2)CC1` [Example 529, [4-[[3-[4-(difluoromethoxy)phenyl]imi-dazo[1,2-a]pyrazin-8-yl]amino]-2-methylphenyl]-[4-[(2R,4S)-4-hydroxypyrrolidine-2-carbonyl]piperazin-1-yl]methanone; hydrochloride]: the IC90 was determined as 690 nM.
For `COc1ccc(-c2cnc3c(Nc4ccc(C(=O)N5CCN(C(=O)[C@H](CCN)NC(=O)CC[C@H](N)C(=O)O)CC5)c(C)c4)nccn23)c(F)c1F` [Example 532, (2S)-2-amino-5-[[(2S)-4-amino-1-[4-[4-[[3-(2,3-difluoro-4-methoxyphenyl)imidazo[1,2-a]pyrazin-8-yl]amino]-2-methylbenzoyl]piperazin-1-yl]-1-oxobutan-2-yl]amino]-5-oxopentanoic acid; hydrochloride], the IC90 was 1200 nM.
For the molecule `COc1ccc(-c2cnc3c(Nc4ccc(C(=O)N5CCN(C(=O)[C@H](CCCN)NC(=O)CC[C@H](N)C(=O)O)CC5)c(C)c4)nccn23)c(F)c1F` [Example 533, (2S)-2-amino-5-[[(2S)-5-amino-1-[4-[4-[[3-(2,3-difluoro-4-methoxyphenyl)imidazo[1,2-a]pyrazin-8-yl]amino]-2-methylbenzoyl]piperazin-1-yl]-1-oxopentan-2-yl]amino]-5-oxopentanoic acid; hydrochloride], the IC90 was 1500 nM.
Consider `COc1ccc(-c2cnc3c(Nc4ccc(C(=O)N5CCN(C(=O)[C@H](CCCCN)NC(=O)[C@@H](N)CCC(=O)O)CC5)c(C)c4)nccn23)c(F)c1F` [Example 537, (4S)-4-amino-5-[[(2S)-6-amino-1-[4-[4-[[3-(2,3-difluoro-4-methoxyphenyl)imidazo[1,2-a]pyrazin-8-yl]amino]-2-methylbenzoyl]piperazin-1-yl]-1-oxohexan-2-yl]amino]-5-oxopentanoic acid; hydrochloride], for which the IC90 turned out to be 4400 nM.
Take `CCc1cc(Nc2nccn3c(-c4ccc(OCC#N)c(F)c4F)cnc23)ccc1C(=O)N1CCC(C(=O)N2CCN[C@@H](CO)C2)CC1` [Example 540, 2-[4-[8-[3-ethyl-4-[4-[(3R)-3-(hydroxymethyl)piperazine-1-carbonyl]piperidine-1-carbonyl]anilino]imidazo[1,2-a]pyrazin-3-yl]-2,3-difluorophenoxy]acetonitrile; 2,2,2-trifluoroacetic acid]: the IC90 was 90 nM.
For the molecule `CCc1cc(Nc2nccn3c(-c4ccc(OCC#N)c(F)c4F)cnc23)ccc1C(=O)N1CCC(C(=O)N2CCN[C@H](CO)C2)CC1` [Example 541, 2-[4-[8-[3-ethyl-4-[4-[(3S)-3-(hydroxymethyl)piperazine-1-carbonyl]piperidine-1-carbonyl]anilino]imidazo[1,2-a]pyrazin-3-yl]-2,3-difluorophenoxy]acetonitrile; 2,2,2-trifluoroacetic acid], the IC90 worked out at 96 nM.
`COc1ccc(-c2cnc3c(Nc4ccc(C(=O)N5CCC(C(=O)N6CCN[C@@H](CO)C6)CC5)c(C)c4)nccn23)c(F)c1F` [Example 544, [4-[[3-(2,3-difluoro-4-methoxyphenyl)imidazo[1,2-a]pyrazin-8-yl]amino]-2-methylphenyl]-[4-[(3R)-3-(hydroxymethyl)piperazine-1-carbonyl]piperidin-1-yl]methanone; formic acid]: the IC90 turned out to be 100 nM.
In the case of `Cc1cc(Nc2nccn3c(-c4ccc(OC(F)F)cc4)cnc23)ccc1C(=O)N1CCC(C(=O)NC[C@@H]2CNC(=O)O2)CC1` [Example 548, (R)-1-(4-((3-(4-(difluoromethoxy)phenyl)imidazo [1,2-a]pyrazin-8-yl)amino)-2-methylbenzoyl)-N-((2-oxooxazolidin-5-yl)methyl)piperidine-4-carboxamide], the IC90 was determined as 203 nM.
For `COc1ccc(-c2cnc3c(Nc4ccc(C(=O)N5CCN(C(=O)[C@@H]6C[C@@H](OC(=O)[C@@H](N)[C@@H](C)O)CN6)CC5)c(C)c4)nccn23)c(F)c1F` [Example 549, [(3R,5S)-5-[4-[4-[[3-(2,3-difluoro-4-methoxy-phenyl)imidazo[1,2-a]pyrazin-8-yl]amino]-2-methyl-benzoyl]piperazine-1-carbonyl]pyrrolidin-3-yl] (2S,3R)-2-amino-3-hydroxy-butanoate formate], the IC90 is 75 nM.
As to `COc1ccc(-c2cnc3c(Nc4ccc(C(=O)N5CCN(C(=O)[C@@H]6C[C@@H](OC(=O)[C@@H](N)CCCNC(=N)N)CN6)CC5)c(C)c4)nccn23)c(F)c1F` [Example 550, [(3R,5S)-5-[4-[4-[[3-(2,3-difluoro-4-methoxy-phenyl)imidazo[1,2-a]pyrazin-8-yl]amino]-2-methyl-benzoyl]piperazine-1-carbonyl]pyrrolidin-3-yl] 2-amino-5-guanidino-pentanoate formate], the IC90 was 153 nM.
In the case of `COc1ccc(-c2cnc3c(Nc4ccc(C(=O)N5CCN(C(=O)[C@@H]6C[C@@H](OC(=O)[C@@H]7CCCN7)CN6)CC5)c(C)c4)nccn23)c(F)c1F` [Example 551, [(3R,5S)-5-[4-[4-[[3-(2,3-difluoro-4-methoxy-phenyl)imidazo[1,2-a]pyrazin-8-yl]amino]-2-methyl-benzoyl]piperazine-1-carbonyl]pyrrolidin-3-yl] pyrrolidine-2-carboxylate formate], the IC90 was found to be 196 nM.
Same read-out and setting: as for `COc1ccc(-c2cnc3c(Nc4ccc(C(=O)N5CCN(C(=O)[C@@H]6C[C@@H](OC(=O)[C@@H](N)C(C)C)CN6)CC5)c(C)c4)nccn23)c(F)c1F` [Example 552, [(3R,5S)-5-[4-[4-[[3-(2,3-difluoro-4-methoxy-phenyl)imidazo[1,2-a]pyrazin-8-yl]amino]-2-methyl-benzoyl]piperazine-1-carbonyl]pyrrolidin-3-yl] (2S)-2-amino-3-methyl-butanoate], the figure is 186 nM; as for `Cc1cc(Nc2nccn3c(-c4ccc(OC(F)F)cc4)cnc23)ccc1C(=O)N1CCC(C(=O)NC[C@H](O)CN)CC1` [Example 553, (R)-N-(3-amino-2-hydroxypropyl)-1-(4-((3-(4-(difluoromethoxy)phenyl)imidazo [1,2-a]pyrazin-8-yl)amino)-2-methylbenzoyl)piperidine-4-carboxamide formate], 227 nM; as for `Cc1cc(Nc2nccn3c(-c4ccc(OC(F)F)cc4)cnc23)ccc1C(=O)N1CCC(C(=O)NC[C@@H](O)CN)CC1` [Example 554, (S)-N-(3-amino-2-hydroxypropyl)-1-(4-((3-(4-(difluoromethoxy)phenyl)imidazo [1,2-a]pyrazin-8-yl)amino)-2-methylbenzoyl)piperidine-4-carboxamide formate], 344 nM.
As for `CCc1cc(Nc2nccn3c(-c4ccc(OC(C)C#N)c(F)c4F)cnc23)ccc1C(=O)N1CCN(CCN(C)C)CC1` (stereo not shown) [Example 557, 2-(4-(8-((4-(4-(2-(dimethylamino)ethyl)piperazine-1-carbonyl)-3-ethylphenyl)amino)imidazo[1,2-a]pyrazin-3-yl)-2,3-difluorophenoxy)propanenitrile], the IC90 came out at 694 nM.
The same measure, in the same setting: as for `Cc1cc(Nc2nccn3c(-c4ccc(O[C@H](C)C#N)c(F)c4F)cnc23)ccc1C(=O)N1CCN(C(=O)[C@@H]2C[C@@H](O)CN2)CC1` [Example 559, (2R)-2-[2,3-difluoro-4-[8-[4-[4-[(2S,4R)-4-hydroxypyrrolidine-2-carbonyl]piperazine-1-carbonyl]-3-methyl-anilino]imidazo[1,2-a]pyrazin-3-yl]phenoxy]propanenitrile formate], the figure is 699 nM.
